Results on one compound are retold here after patent US7214671B2, “Use of 2-methylene-19-nor-20(S)-1α,25-dihydroxyvitamin D3 for the prophylaxis of bone diseases” (Wisconsin Alumni Research Foundation, priority 2004, dated 2007).

Where “and” joins values, the source holds several entries; their conditions need not be identical. Identical values can stand only once. Entries after “also recorded” stand apart in the source; their conditions may differ.

The target of data set [1] is T1, full length recombinant rat receptor (nuclear vitamin D receptor) (Rattus norvegicus, UniProt P13053).
T1 construct: the full length recombinant rat receptor
T1 sequence (P13053 1-423): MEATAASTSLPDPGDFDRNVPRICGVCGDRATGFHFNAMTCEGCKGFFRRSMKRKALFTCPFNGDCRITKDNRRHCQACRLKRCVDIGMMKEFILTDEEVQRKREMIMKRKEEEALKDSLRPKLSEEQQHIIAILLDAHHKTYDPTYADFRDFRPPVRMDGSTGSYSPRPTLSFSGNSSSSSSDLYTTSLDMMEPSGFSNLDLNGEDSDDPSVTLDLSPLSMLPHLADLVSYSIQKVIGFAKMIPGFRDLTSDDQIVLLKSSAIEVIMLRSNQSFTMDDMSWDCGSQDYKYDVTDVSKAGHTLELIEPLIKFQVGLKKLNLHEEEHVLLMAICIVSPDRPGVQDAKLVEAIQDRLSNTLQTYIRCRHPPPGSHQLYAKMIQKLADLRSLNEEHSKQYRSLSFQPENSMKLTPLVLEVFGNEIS
Nature of the data set: Competitive binding of [3H]-1α,25-(OH)2-D3 to full length recombinant rat vitamin D receptor. The conditions noted are these: FIG. 1.

In data set [2] the test system is intestinal calcium transport. Nature of the data set: Intestinal calcium transport in vitamin D-deficient rats (everted gut sac). The following applies: oral gavage 7 consecutive days, FIG. 2. In kind it is in vivo, rat. The method, then: Values represent means±standard error.
(§1) The intestinal calcium transport and bone mobilization studies were carried out as described by Sicinski et al. (J. Med. Chem. 41, 4662–4674, 1998) and Suda et al. (J. Nutr. 100, 1049–1052, 1970).

Data set [3] concerns mobilization of bone calcium. Nature of the data set: Bone calcium mobilization (serum calcium) in vitamin D-deficient rats. The conditions noted are these: serum calcium 24 hours after last dose, zero calcium diet, FIG. 3. In kind it is in vivo, rat. The method, then:
Blood serum calcium was measured 24 hours following the last dose in the rats as described in FIG. 2. Values represent mean±standard error.
as §1
The in vivo tests of increasing serum calcium of rats on a zero calcium diet provides an insight to […] or bone activity of 2MD.

The test system of data set [4] is HL-60 promyelocytic cells. Kind of data set: HL-60 cell differentiation into monocytes. In kind it is cell-based. The conditions noted are these: FIG. 5. As for the experimental part: The differentiation of HL-60 promyelocytic cells into monocytes was determined as described by Ostrem et al. (J. Biol. Chem. 262, 14164–14171, 1987).
Data set [5] relates to ovariectomized old female rats. Nature of the data set: Treatment of ovariectomized old female rats (bone mass, serum calcium, femur ash). In kind it is in vivo, rat. The following applies: doses of Table 1. From the text: Values in the figure are mean±standard error.
Data set [6] relates to Rhesus monkeys. Nature of the data set: Serum calcium after single oral bolus dose in Rhesus monkeys. In kind it is in vivo, Rhesus monkey. On the set-up: dose or concentration left out as unconfirmed. The conditions noted are these: 24 hours after dose, FIG. 10. The method, then: FIG. 10 is a line graph illustrating the blood serum calcium levels 24 hours after dose in Rhesus monkeys given a single oral bolus dose of 2-methylene-19-nor-20(S)-1α,25-dihydroxyvitamin D3 (2MD) at varying concentrations;
These and other tests indicate that primates will tolerate 2MD extremely well which may give a very large window between efficacy and the danger of hypercalcemia in man.

The subject of data set [7] is normal adult female Sprague-Dawley rats. Kind of data set: Building bone mass in normal adult female rats (BMD, body weight, serum calcium). In kind it is in vivo, rat. The following applies: 2.5 ng/kg/d oral. The method, then: All 7-month old, nulliparous female, Sprague-Dawley rats (Harlan Sprague-Dawley, Madison, Wis.) were sham-operated at 7 months of age.
Beginning with arrival in the facility, rats were fed a purified rodent diet (“Diet 11”) prepared in-house (Suda et al, 1970, J. Nutr., 100:1049–1052) and containing 0.47% calcium, 0.3% phosphorus and 1.6 IU vitamin D3/g. To maintain consistent body weights (monitored weekly), rats were fed a total of 150 g diet/week, i.e. 21.5 g/day/rat.
Rats were dosed daily beginning 5–6 weeks post-surgery. Neobee oil (vehicle) or 2MD were delivered to the back of the tongue in 100 μL. The dosing solution concentrations were adjusted monthly based on group-average body weights.
At predose and at 1, 2, 4, 6, 10, 11, 18 and 25 weeks after dose, blood was collected 24 hr. after the most recent dose from the tail artery of ether-anesthetized rats. Serum was diluted in 0.1% lanthum chloride and the concentration of calcium determined by atomic absorption spectrometry. The values shown are averages for all rats, and include standard errors.
Both total body BMD and appendicular (right distal and proximal femur) BMD were determined by dual-energy X-ray absorptiometry (Lunar DPXα-Madison, Wis.; Small Animal Software-version 1.0e) at weeks 0, 8, 16, and 24. Appendicular BMD was performed as described (Haffa et al, 2000, J. Bone Min. Res. 15:872). The values shown are averages for all rats and include standard errors.

In the case of `C=C1[C@H](O)CC(=C/C=C2\CCC[C@]3(C)[C@@H]([C@@H](C)CCCC(C)(C)O)CC[C@@H]23)C[C@H]1O` [2MD, 2-methylene-19-nor-20(S)-1α,25-dihydroxyvitamin D3], in data set [1], the “binding to the receptor as compared to the standard 1,25-(OH)2D3” value is recorded as “bound equally well; also recorded: about as active as 1,25(OH)2D3”. Further, in data set [2], the “intestinal calcium transport activity compared with 1,25(OH)2D3” value is listed as “activity similar to that of 1,25-dihydroxyvitamin D3; also recorded: approximately equal”. The “potency relative to 1,25(OH)2D3 in mobilization of bone calcium” value in data set [3] is 100 times and 80–100 times. The “potency relative to 1,25(OH)2D3 on HL-60 cell differentiation” value in data set [4] was 10–50 times. Besides, in data set [5], the “change in serum calcium at dosage levels that elevated bone mass” value is recorded as “no change in serum calcium”. In data set [6], the “elevation of serum calcium concentration” value is reported as “does not cause significant elevation”. Further, in data set [7] (24 weeks, FIG. 12A), the “increase in cancellous bone BMD” value amounted to 14%. In addition, in data set [7] (FIG. 12B), the “increase in cortical bone” value is 6%. The “change in body weight” value in data set [7] (FIG. 13A) was “absence of any change”. Besides, the “change in serum calcium” value in data set [7] (FIG. 13B) is given as “absence of any change”. The “total body BMD versus vehicle control” value in data set [7] (from 8 to 24 weeks, FIG. 11) is “increased above vehicle-control animals”.
